The values that follow come from paper PMC3856571 (Journal of the American Chemical Society, 2013).

Numbered stars: 1 amine (or outer) side, 2 acyl side, 3 side chain; on linkers, the order of the positions; unused ones are H or OH. Bridge positions count the residues as written; N and C are the ends. Square brackets hold non-standard residues; d marks the D form. Peptide text beside a SMILES is read from it. Trimesoyl = O=C(c1cc(C(=O)[*:2])cc(C(=O)[*:3])c1)[*:1]; Phg = N[C@H](C(=O)O)c1ccccc1; Nle = CCCC[C@H](N)C(=O)O; Dap = NC[C@H](N)C(=O)O

Series [1] addresses bovine serum albumin (BSA) (Bos taurus, UniProt P02769). The experiment in a line: Fluorescence anisotropy specificity test, BSA. It counts as binding. (Polarisation of emitted light reports the rotation of a fluorescent probe.)
In series [2] the target is glutathione-S-transferase-PLCγ SH2 domain fusion (GST-SH2). Kind of series: Fluorescence anisotropy specificity test, GST-SH2. It counts as binding. The note with it: FA, Fig. S4.
Series [3] deals with WEHI-13VAR fibroblasts. It counts as cell-based.
Series [4] concerns the target HIV capsid protein (Human immunodeficiency virus type 1 group M subtype B, UniProt P04591). The experiment in a line: Fluorescence anisotropy specificity test, HIV capsid protein. It counts as binding. As to conditions: FA.
Series [5] addresses T1, protein phosphatase PTP1B (Homo sapiens, UniProt P18031).
T1 sequence (P18031 1-435): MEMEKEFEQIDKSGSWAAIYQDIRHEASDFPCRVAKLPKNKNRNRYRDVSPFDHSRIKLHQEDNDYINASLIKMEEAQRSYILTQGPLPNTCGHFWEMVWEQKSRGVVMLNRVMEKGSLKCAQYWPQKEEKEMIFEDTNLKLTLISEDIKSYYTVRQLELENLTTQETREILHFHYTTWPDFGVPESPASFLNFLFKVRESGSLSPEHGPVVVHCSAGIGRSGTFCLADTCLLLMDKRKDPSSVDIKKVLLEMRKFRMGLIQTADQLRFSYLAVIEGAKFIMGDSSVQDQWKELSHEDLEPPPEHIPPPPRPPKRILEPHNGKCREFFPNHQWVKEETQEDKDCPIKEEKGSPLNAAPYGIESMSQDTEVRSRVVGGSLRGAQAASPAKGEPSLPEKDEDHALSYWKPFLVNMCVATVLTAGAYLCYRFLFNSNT
Kind of series: Fluorescence anisotropy specificity test, PTP1B. It is filed as binding. As to conditions: FA.

In series [6] the test system is GST-BRCT fusion protein. As to conditions: FA.
Series [7] deals with TNFα (Homo sapiens, UniProt P01375). The experiment in a line: Fluorescence anisotropy binding of resynthesized FITC-labeled peptides. As to conditions: resynthesized FITC-labeled peptide, FA analysis, Fig. S3.
Chain of TNFα (P01375 77-233 limits assumed): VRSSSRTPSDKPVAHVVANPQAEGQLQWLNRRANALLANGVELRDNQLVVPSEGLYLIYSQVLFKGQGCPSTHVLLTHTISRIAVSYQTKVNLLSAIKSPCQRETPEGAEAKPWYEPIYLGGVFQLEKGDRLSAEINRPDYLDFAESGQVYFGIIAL

Chain of bovine serum albumin (BSA) (P02769 25-607): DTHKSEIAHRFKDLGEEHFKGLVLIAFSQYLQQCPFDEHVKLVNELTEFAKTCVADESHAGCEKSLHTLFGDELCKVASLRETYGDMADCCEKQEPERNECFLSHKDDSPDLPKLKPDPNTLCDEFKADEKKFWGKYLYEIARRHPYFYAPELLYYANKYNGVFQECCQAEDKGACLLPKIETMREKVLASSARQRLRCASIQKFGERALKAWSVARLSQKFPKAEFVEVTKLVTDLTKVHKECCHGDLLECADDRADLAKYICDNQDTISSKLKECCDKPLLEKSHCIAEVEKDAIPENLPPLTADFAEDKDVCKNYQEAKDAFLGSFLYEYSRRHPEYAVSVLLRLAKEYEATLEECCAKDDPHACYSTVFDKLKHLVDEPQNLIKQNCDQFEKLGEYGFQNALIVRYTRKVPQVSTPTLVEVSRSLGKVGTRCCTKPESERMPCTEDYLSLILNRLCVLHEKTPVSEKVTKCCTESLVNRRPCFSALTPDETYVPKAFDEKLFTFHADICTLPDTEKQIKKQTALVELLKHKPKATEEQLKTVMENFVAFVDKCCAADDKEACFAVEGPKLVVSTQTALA

For the compound `CCCC[C@@H]1NC(=O)[C@@H]2CCCCNC(=O)c3cc(cc(c3)C(=O)N[C@@H](C)C(=O)N[C@H](Cc3ccccc3)C(=O)N[C@@H](Cc3c[nH]c4ccccc34)C(=O)N[C@H]([C@H](C)O)C(=O)N[C@@H](CCC(N)=O)C(=O)N2)C(=O)NC[C@@H](C(N)=O)NC(=O)[C@H](Cc2c[nH]cn2)NC(=O)[C@H](C)NC(=O)[C@@H](CC(C)C)NC1=O` [Anticachexin C2, bicyclo(Ala-D-Phe-Trp-D-Thr-Gln-Lys-Nle-D-Leu-Ala-His-Dap)] (A[dF]W[dT]QK[Nle][dL]AH[Dap]-NH2; linker N-6-11 via Trimesoyl; C-terminus assumed), the dissociation constant Kd – broadly, the equilibrium constant for the complex coming apart – amounted to 7.4 µM in series [1] and 1.5 µM in series [2] (read-out: KD for GST-SH2).

Regarding TNFα, in series [3] (TNFα 0-250 ng/mL, MTT, Fig. S6), the “LD50 of TNFα in the absence of TNFα inhibitor” value came out at 0.46 ng/mL.

With `C[C@H]1NC(=O)[C@H](Cc2ccc(O)cc2)NC(=O)[C@H](c2ccccc2)NC(=O)c2cc3cc(c2)C(=O)NC[C@@H](C(N)=O)NC(=O)[C@H](Cc2c[nH]cn2)NC(=O)[C@@H](CCCCN)NC(=O)CNC(=O)[C@@H](Cc2ccccc2)NC(=O)[C@H](Cc2ccc(O)cc2)NC(=O)[C@H](CCCCNC3=O)NC1=O` [Anticachexin C1, bicyclo(Phg-Tyr-D-Ala-Lys-Tyr-D-Phe-Gly-D-Lys-His-Dap)] ([Phg]Y[dA]KY[dF]G[dK]H[Dap]-NH2; linker N-4-10 via Trimesoyl; C-terminus assumed), the “LD50 of TNFα in the presence of 50 μM Anticachexin C1” value in series [3] (TNFα 0-250 ng/mL, fixed 50 μM Anticachexin C1, MTT, Fig. S6) was 1.8 ng/mL. In series [3] (TNFα 0.04 ng/ml, actinomycin-D, peptide 0-25 μM, MTT, Fig. 4c), the “protection of cells from TNFα-induced cell death” value was “protected the cells from TNFα-induced cell death in a concentration-dependent manner”. In addition, the “binding to HIV capsid protein” value in series [4] is reported as “not to any of the other proteins”. Also, the Kd in series [1] is ~34 µM. In addition, in series [5], the “binding to PTP1B” value is “not to any of the other proteins”. Also, the “binding to GST-BRCT fusion protein” value in series [6] is given as “not to any of the other proteins”. Moreover, the “KD for GST-SH2” value in series [2] is reported as “not to any of the other proteins”.

Turning to “Bicyclo(Arg-Arg-Arg-Arg-Nal-Phe-Dap-Ser-D-Val-Pro-pTyr-His-Dap)”, the “KD for TNFα” value in series [7] is on record as “no detectable binding”.
